Results as given in patent US20090253757A1, “Plant protection agents” (priority 1996, published 2009).

Tested on: Erysiphe graminis
Test: Activity against Erysiphe graminis on barley (residual protective / systemic)
Format: in vivo
Excerpt: A synergistic effect is present if the activity of the active ingredient combination is greater than the sum of activities of the individual components. The activity E to be expected for a given active ingredient combination obeys the so-called COLBY formula and may be calculated as follows (COLBY, S. R. “Calculating synergistic and antagonistic responses of herbicide combination”. Weeds, Vol. 15, pages 20-22; 1967): ppm=milligrams active ingredient (=ai) per litre spray mixture X=% activity from active ingredient I during application of p ppm of active ingredient Y=% activity from active ingredient II during application of q ppm of active ingredient The expected (additive) activity of active ingredients I+II during application of […] active ingredient is, according to Colby If the activity actually observed (O) is greater than the expected activity (E), then the combination is super-additive in its activity, i.e. there is a synergistic effect ([…] factor). Barley plants of approximately 8 cm height are sprayed until dripping wet with an aqueous spray mixture prepared from wettable powder of the active ingredient mixture, and 3 to 4 hours later are dusted with conidia of the fungus. The infected plants are placed in a greenhouse at […]. 12 days after infection, the fungal attack is evaluated. An aqueous spray mixture prepared from wettable powder of the active ingredient mixture is poured onto barley plants of approximately 8 cm height. […] 48 hours later, the plants are dusted with conidia of the fungus. The infected plants are placed in a greenhouse at 22° C. 12 days after infection, the fungal attack is evaluated.

Row | Compound | % activity found O (active ingredient I 0.1 mg/litre alone) [%] | % activity found O (active ingredient I 1.0 mg/litre alone) [%] | inhibition at 0.1 µg/mL (Blumeria graminis, active ingredient IIA 0.1 mg/litre alone, read-out: % activity found O) [%] | inhibition at 0.5 µg/mL (Blumeria graminis, active ingredient IIA 0.5 mg/litre alone, read-out: % activity found O) [%] | inhibition at 1 µg/mL (Blumeria graminis, active ingredient IIA 1.0 mg/litre alone, read-out: % activity found O) [%] | inhibition at 10 µg/mL (Blumeria graminis, active ingredient IIA 10.0 mg/litre alone, read-out: % activity found O) [%]
1 | CON=C(C(=O)OC)c1ccccc1CON=C(C)c1cccc(C(F)(F)F)c1 [I, 2-[α-{[(α-methyl-3-trifluoromethyl-benzyl)imino]-oxy}-o-tolyl]-glyoxylic acid-methylester-O-methyloxime] | 6 | 30 | – | – | – | –
2 | Fc1ccc(Oc2ccnc3cc(Cl)cc(Cl)c23)cc1 [IIA, 5,7-dichloro-4-(4-fluorophenoxy)quinoline] | – | – | 4 | 6 | 8 | 21
